Results published in PubChem BioAssay (NCI).
Values joined by “and” are separate entries in the source; they are usually repeats but may differ in a detail not shown here. Identical values can stand only once.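 Test compounds were applied to cells in 96-well plates for 48 hours at 5 doses. GI50 marks 50% less growth. Definition used: TGI = concentration required for complete inhibition of growth.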

What was measured:
Test in all cases: DTP human tumour cell line panel, 48 h
[1] = tested on: A549 NSCLC
[2] = tested on: HOP-62 NSCLC
[3] = tested on: IGROV1 ovarian
[4] = tested on: KM12 colon
[5] = tested on: M14 melanoma
[6] = tested on: RPMI-8226 leukemia
[7] = tested on: SK-OV-3 ovarian
[8] = tested on: UACC-62 melanoma
[9] = tested on: NCI-H522 lung
[10] = tested on: HS 578T breast

Compound | TGI [1] | TGI [2] | TGI [3] | TGI [4] | TGI [5] | TGI [6] | TGI [7] | TGI [8] | TGI [9] | GI50 [1] | TGI [10] | GI50 [3] | GI50 [5] | GI50 [2] | GI50 [4] | GI50 [9] | GI50 [6] | GI50 [7] | GI50 [8]
CC(=O)OC1C/C(C)=C/[C@H](O)CC(C)/C=C/[C@@]2(C)CCC(C(C)(C)O)C12 (some centres undefined) | > 100 µM | > 100 µM | > 100 µM | > 100 µM | > 100 µM | > 100 µM | > 100 µM | > 100 µM |  |  |  |  |  |  |  |  |  |  | 
COC(=O)C1CCC(N2C(=O)CCC2C(=O)OC)=N1 (centres undefined) | > 100 µM | > 100 µM | > 100 µM | > 100 µM | > 100 µM | > 100 µM | > 100 µM | > 100 µM | > 100 µM |  |  |  |  |  |  |  |  |  | 
CC(C)[C@H](O)C(=O)N[C@H]1Cc2ccc3c(c2)[C@]24C5=C(N=C(O5)[C@H](C(C)C)NC1=O)c1nc(Cl)c(o1)-c1c(Cl)[nH]c5cccc(c15)-c1cccc2c1N[C@H]4O3 | > 10 µM | > 10 µM | > 10 µM |  | > 10 µM |  | > 10 µM |  | 0.00562 µM | < 0.001 µM | > 10 µM | < 0.001 µM | 0.0012 µM |  |  |  |  |  | 
Cc1cccc(NC(=O)Cc2nc3ccccc3s2)c1C | > 100 µM | > 100 µM | > 100 µM | > 100 µM | > 100 µM | > 100 µM | > 100 µM | > 100 µM | > 100 µM |  |  |  |  |  |  |  |  |  | 
C=CC1=C(C)C(Cc2[nH]c(/C=c3\[nH]/c(=C/C4=NC(=O)C(C)/C4=C\C)c(C)c3CCC(=O)O)c(CCC(=O)OC)c2C)NC1=O (centres undefined) | > 100 µM | 62.4 µM | 42.4 µM | 40.1 µM | 89.5 µM | 59.8 µM | 78.2 µM | 35.9 µM | 32 µM | 40.2 µM |  | 18.8 µM | 28.3 µM | 26.4 µM | 21 µM | 17.7 µM | 23.9 µM | 27.9 µM | 18.7 µM
CCC(C)c1cnc(CC(C)C)c(=O)[nH]1 (centres undefined) | > 100 µM | > 100 µM | > 100 µM | > 100 µM | > 100 µM | > 100 µM | > 100 µM | > 100 µM |  |  | > 100 µM |  |  |  |  |  |  |  | 
Oc1oc(-c2ccccc2)nc1/C=C1/C=NN=N1 | > 100 µM | > 100 µM | > 100 µM | > 100 µM | > 100 µM | > 100 µM | > 100 µM | > 100 µM |  |  | > 100 µM |  |  |  |  |  |  |  | 
C[C@@]1(CBr)C[C@@](C)(/C=C/Cl)[C@@H](Cl)C[C@H]1Cl | 26.1 µM | 27.5 µM | 29 µM | 22.5 µM | 29 µM |  | 29.9 µM | 29.1 µM | 14.5 µM |  |  |  |  |  |  |  |  |  | 
CN(C(=O)C1CC1)C1C2CN3CCC(O2)C13 (centres undefined) | > 100 µM | > 100 µM | > 100 µM | > 100 µM | > 100 µM | > 100 µM | > 100 µM | > 100 µM | > 100 µM |  |  |  |  |  |  |  |  |  | 
CC(=O)Oc1cc(OC(C)=O)c2cc3c(cc2c1OC(C)=O)C(=O)C1(CCCC1)C3=O | 40.4 µM | 42 µM | 32.4 µM |  | 32.1 µM | 4.89 µM | 31.4 µM | 30.2 µM |  |  |  |  |  |  |  |  |  |  | 
CN(C)C(=S)/N=c1\ssc(=S)n1Cc1ccccn1 | > 100 µM | > 100 µM | > 100 µM | > 48 µM | > 48.2 µM | > 25.9 µM | > 100 µM | 11 µM | 4.17 µM |  |  |  |  |  |  |  |  |  | 
CC(=O)[CH-]C(=O)c1ccccc1.CC(=O)[CH-]C(=O)c1ccccc1.CC12CC3(C)CC(C)(C1)CC([O-])(C2)C3.CC[O-].[Ti+4] | > 100 µM | 53.3 µM | > 100 µM | 35.2 µM | 32.8 µM | 95.5 µM | > 100 µM | 45.2 µM | 44.6 µM | 29.5 µM |  | 40.9 µM | 16.9 µM | 22.3 µM | 18.3 µM | 21.2 µM | 8.54 µM | 23.1 µM | 18.5 µM
COC(=O)NN=C1C(C)(C)C(=NNC(=O)OC)C1(C)C | > 100 µM | > 100 µM | > 100 µM | > 100 µM | > 100 µM |  | > 100 µM | > 100 µM | > 100 µM |  |  |  |  |  |  |  |  |  | 
CCCCc1oc2ccccc2c1C(=O)c1cc(I)c(OCCN(CC)CC)c(I)c1 | 15.8 µM and 70.3 µM | 6.25 µM and 30.7 µM |  | 3.61 µM and 12.3 µM | 4.78 µM | 4.91 µM and 9.09 µM | 6.41 µM and 20.1 µM | 3.83 µM | 3.48 µM and 12.3 µM | 3.72 µM |  | 4.66 µM | 2.18 µM | 2.36 µM | 1.84 µM | 1.79 µM | 1.92 µM | 2.69 µM | 
CC(C)(C)[Si](Nc1ccccc1)(c1ccccc1)c1ccccc1 | 28.2 µM | 31.4 µM | 28.3 µM | 27.4 µM | 27.5 µM | 44.1 µM | 30.9 µM | 22.7 µM |  |  |  |  |  |  |  |  |  |  | 
COc1cc(C(=O)/C=C/c2c(-c3cccs3)nc3ccccn23)cc(OC)c1OC | 5.89 µM | 6.75 µM | 3.73 µM | 2.79 µM |  | 3.72 µM | 8.35 µM | 3.57 µM | 2.38 µM | 2.04 µM |  | 1.89 µM |  | 2.88 µM | 1.32 µM | 1.1 µM | 1.23 µM | 3.01 µM | 1.61 µM
O/N=C1/C(=C/c2ccc(Cl)cc2)CCCC1C(NO)c1ccc(Cl)cc1 (centres undefined) | 57.4 µM | 68.9 µM | > 100 µM | 40.6 µM | 33.8 µM | 44.4 µM | > 100 µM | > 100 µM | 62.8 µM |  |  |  |  |  |  |  |  |  | 
O=C(Cc1nc2ccccc2s1)C(=O)Nc1ccc(Cl)cc1Cl | > 100 µM | > 100 µM | > 100 µM | > 100 µM | > 100 µM | > 100 µM | > 100 µM |  |  |  |  |  |  |  |  |  |  |  | 
CN(C)NC(=S)NC12CC3CC(CC(C3)C1)C2 | > 100 µM | > 100 µM | > 100 µM | > 100 µM | > 100 µM |  | > 100 µM | > 100 µM | > 100 µM |  |  |  |  |  |  |  |  |  | 
CCCCCC/C=C/CCCCCCCc1cccc(O)c1C(=O)O | > 100 µM | > 100 µM | > 100 µM | > 100 µM | > 100 µM | > 100 µM | 99.8 µM | > 100 µM | > 100 µM |  |  |  |  |  |  |  |  |  | 
